Laboratory results reported in paper PMC10196118, “Evidence for broad cross-reactivity of the SARS-CoV-2 NSP12-directed CD4^+ T-cell response with pre-primed responses directed against common cold coronaviruses” (Frontiers in Immunology, 2023).

Columns and labels:
[1] = tested on: pre-cultured PBMCs (NSP12-specific T cells); test: IFN-γ ELISpot with single 15-mer peptides after 11–13 days in vitro peptide-pool T-cell expansion; format: cell-based, human; conditions: single NSP12 15-mer peptides
11 DRB1-HLA molecules = test: In vitro HLA class II binding, number of DRB1 alleles bound; design: species or system human; conditions: number of the 11 DRB1-HLA molecules tested bound with an affinity of 1,000 nM or better (in vitro)
CD4+ T cells = test: Peptide-specific CD4+ T-cell response: IFN-γ ELISpot validated by intracellular cytokine staining after in vitro expansion; format: cell-based, human; conditions: COVID-19 patients (acute or resolved, n = 27); peptide 10 µg/ml; share of individuals with a positive response

CC(C)C[C@H](NC(=O)[C@H](CCCNC(=N)N)NC(=O)[C@H](Cc1ccc(O)cc1)NC(=O)[C@H](Cc1ccccc1)NC(=O)[C@H](CCCNC(=N)N)NC(=O)[C@H](Cc1c[nH]cn1)NC(=O)[C@H](CO)NC(=O)[C@H](CC(C)C)NC(=O)[C@H](CO)NC(=O)[C@@H](N)CS)C(=O)N[C@@H](C)C(=O)N[C@@H](CC(N)=O)C(=O)N[C@@H](CCC(=O)O)C(=O)N[C@@H](CS)C(=O)N[C@@H](C)C(=O)O [NSP12_130]
peptide-specific response, donor HH-N12-18, post COVID-19 ([1]; donor HH-N12-18, sample post COVID-19): 0
peptide-specific response, donor HH-N12-18, pre COVID-19 ([1]; donor HH-N12-18, sample pre COVID-19): 0
peptide-specific response, donor HH-N12-34, post COVID-19 ([1]; donor HH-N12-34, sample post COVID-19): 0.031
peptide-specific response, donor HH-N12-34, pre COVID-19 ([1]; donor HH-N12-34, sample pre COVID-19): 0.09
peptide-specific response, donor HH-N12-35, post COVID-19 ([1]; donor HH-N12-35, sample post COVID-19): 0
peptide-specific response, donor HH-N12-35, pre COVID-19 ([1]; donor HH-N12-35, sample pre COVID-19): 0
peptide-specific response, donor HH-N12-36, post COVID-19 ([1]; donor HH-N12-36, sample post COVID-19): 0.06
peptide-specific response, donor HH-N12-36, pre COVID-19 ([1]; donor HH-N12-36, sample pre COVID-19): 0
peptide-specific response, donor HH-N12-37, post COVID-19 ([1]; donor HH-N12-37, sample post COVID-19): 0.032
peptide-specific response, donor HH-N12-37, pre COVID-19 ([1]; donor HH-N12-37, sample pre COVID-19): 0
Alleles bound (11 DRB1-HLA molecules): 8
RF (response frequency), CD4+ T-cell response (CD4+ T cells): 26%
